Values after ≈ are worked out from the molar mass of the structure shown.
Experiments:
Acute toxicity = type: in vivo, mice (ddy); details: mouse, in vivo, ip; for LD50 at 336 h: ddy mice, single i.p., 14 days, Behren Korber's method; for selectivity ratio: read-out: (C.I.)* = (LD50/ED50)/[(LD50/ED50) of MMC1]
Protocol: (§1) Certain compounds were selected from Compounds I. The following Table 4 indicates anti-tumour activity against Sarcoma 180 solid tumour (ED50), acute toxicity (LD50) and effects on the peripheral leucocytes (WBC4000) of each compound.
Each animal of the test group consisting of 5 ddy mice was once administered (i.p.) with a test compound. […] The LD50 was determined by Behren Korber's method.

in vivo = type: in vivo, mice (ddy strain); details: mouse, in vivo, ip; read-out: (WBC4000/ED50)* = (WBC4000/ED50)/[(WBC4000/ED50) of MMC1]
Protocol: as §1
(4) Effect upon the number of the peripheral leucocytes:
Sarcoma 180 solid tumour cells (5×10^6) were subcutaneously implanted into the right armpit of each mouse (body weight 20±2 g) of a group consisting of 5 male mice (ddy strain). 24 hours after implantation,a test compound was abdominally administered to each mouse. 4 days later, blood (each 0.02 ml) was collected from the suborbital plexus vein of each tumour-carrying mouse. The collected sample of blood was dispersed in 9.98 ml of Cell-kit Seven solution. One drop of saponin solution was added to the sample to dissolve erythrocytes and then a microcell counter was used to measure the number of leucocytes. On graph paper, the number of leucocytes was indicated on the y-axis by an arithmetic scale and the does of the test compound was indicated on the x-axis by a logarithmic scale.
The relationship between the number of peripheral leucocytes and the dosage of the test compound was plotted to obtain WBC4000 viz. the dosage corresponding to […] per mm^3 (about half of the number of leucocytes of normal mice).

[1] = system: Klebsiella pneumoniae ATCC 10031; assay: microbe, parasite or virus in culture; type: cell-based; details: ATCC10031, pH 7, read-out: minimum inhibitory concentration, KP
Excerpt: Certain Compounds I were selected. […] In this table, the microorganisms used are abbreviated as follows:
KP: Klebsiella pneumoniae ATCC 10031

Solubility in water = type: physicochemical; details: water
[2] = system: Streptococcus faecalis ATCC 10541; assay: Minimum inhibitory concentration, agar dilution method, SF; type: cell-based; details: Enterococcus faecalis, ATCC10541, pH 7, read-out: minimum inhibitory concentration, SF
Excerpt: (§2) Certain Compounds I were selected. Table 3 indicates their anti-bacterial activities in terms of their minimum inhibitory concentration (μg/ml), determined by the agar dilution method effected at a pH of 7.0. In this table, the microorganisms used are abbreviated as follows:
SF: Streptococcus faecalis ATCC 10541

Sarcoma 180 solid tumour = assay: animal or person; type: in vivo, mice (ddy strain); details: Mus musculus, Sarcoma-180, ip, 168 h, read-out: ED50 ip
Excerpt: as §1
(1) Effect against Sarcoma 180 solid tumour:
5×10^6 cells of Sarcoma 180 solid tumour cells were abdominally implanted into male mice of ddy strain. 7 days after this, ascites cells were sampled. The cells were washed once with a sterilized physiological solution of sodium chloride and were used to prepare a cell suspension containing 5×10^7 cells per ml. On each occasion, 0.1 ml of the cell suspension was subcutaneously implanted into the right armpit of a male mouse (ddy strain; body weight 20±2 g). 24 hours after the implantation of the tumour cells, the test compound which was dissolved in a physiological solution of sodium chloride with or without addition of Tween 80 was abdominally administered to each mouse of a group consisting of 5 animals at a does of 0.1-0.2 ml. The anti-tumour activity was determined as follows:
7 days after the implantation, the major axis (a) and the minor axis (b) of the tumour were measured to calculate a value of "a×b^2 /2" which corresponds to the volume of the tumour. The anti-tumour activity was expressed by T/C viz. the ratio of the volume of the tumours (T) of the group of animals administered with the test compound to the corresponding volume of tumours (C) of the untreated animals.
(2) Determination of ED50 :
The term ED50 denotes the administered amount needed for reducing the volume of Sarcoma 180 solid tumours in the animals to 50% on the basis of the corresponding volume of Sarcoma 180 solid tumours in control (untreated) animals.
On graph paper, T/C was indicated by an arithmetic scale on the longitudinal axis and the administered amount of test compound was indicated by a logarithmic scale on the lateral axis.

[3] = system: Proteus vulgaris ATCC 6897; assay: Minimum inhibitory concentration, agar dilution method, PV; type: cell-based; details: Proteus vulgaris, ATCC6897, pH 7, read-out: minimum inhibitory concentration, PV
Excerpt: as §2
PV: Proteus vulgaris ATCC 6897

P388 Leukemia = assay: Effect upon Leukemia P 388; type: in vivo, mouse (CDF1); details: single i.p., 33 days
Protocol: (5) Effect upon Leukemia P 388:
Ascites cells were collected from P388 Leukemia-carrying mouse (DBA/2) 7 days after the implantation. The number of the cells of P388 Leukemia in the sample was counted. A physiological solution of sodium chloride was sterilized and used to prepare a cell suspension containing 5×10^6 tumour cells per ml. On each occasion, 0.2 ml of the suspension containing 1×10^6 cells was implanted into the abdominal cavity of each mouse (CDF1; body weight 20~25 g). 24 hours after implantation, the test compound was once given to each mouse of a test group consisting of 6 mice by abdominal injection.
The activity of the test samples was determined by the ratio of the average survival days of the treated animals to the average survival days of untreated animals viz. ILS % (Increased Life Span).

[4] = system: Staphylococcus aureus ATCC 6583P; assay: Minimum inhibitory concentration, agar dilution method, SA; type: cell-based; details: Staphylococcus aureus, ATCC6583P, pH 7, read-out: minimum inhibitory concentration, SA
Excerpt: as §2
SA: Staphylococcus aureus ATCC 6583P

Escherichia coli ATCC 26 = assay: Minimum inhibitory concentration, agar dilution method, EC; type: cell-based; details: Escherichia coli, ATCC26, pH 7, read-out: minimum inhibitory concentration, EC
Excerpt: as §2
EC: Escherichia coli ATCC 26

| SMILES | LD50 at 336 h (Acute toxicity) [mg/kg] | selectivity ratio (Acute toxicity) | selectivity ratio (in vivo) | MIC [1] [µg/mL] | solubility (Solubility in water) [mg/mL] | MIC [2] [µg/mL] | ED50 (Sarcoma 180 solid tumour) [mg/kg] | MIC [3] [µg/mL] | ILS* (ratio of ILS % to that of mitomycin C) (P388 Leukemia; dose 50 mg/kg) | MIC [4] [µg/mL] | MIC (Escherichia coli ATCC 26) [µg/mL] | ILS* (ratio of ILS % to that of mitomycin C) (P388 Leukemia; dose 20.3 mg/kg) |
| --- | --- | --- | --- | --- | --- | --- | --- | --- | --- | --- | --- | --- |
| CC1=C(NCCSSCCNC(=O)CC[C@H](N)C(=O)O)C(=O)C2=C(C1=O)N1C[C@H]3[C@H](N3C)[C@]1(O)[C@H]2COC(N)=O (stereo partly drawn) [Compound 2, 7-N-[2-[[2-(N^5 -L-glutamino)ethyl]dithio]ethyl]mitomycin D] | 90 | 1.55 | 2.14 | > 100 | > 5 | 100 (≈ 167 µM) | 18 | 25 (≈ 41.8 µM) | > 1.34 | 50 (≈ 83.5 µM) |  |  |
| CO[C@@]12[C@H](COC(N)=O)C3=C(C(=O)C(C)=C(NCCSSCCNC(=O)CC[C@@H](N)C(=O)O)C3=O)N1C[C@@H]1N[C@@H]12 [Compound 3, 7-N-[2-[[2-(N^5 -D-glutamino)ethyl]dithio]ethyl]mitomycin C] | 22.5 | 1.46 | 3.02 | 0.8 (≈ 1.34 µM) | > 20 | 3.1 (≈ 5.18 µM) | 5.7 | 0.8 (≈ 1.34 µM) |  | 1.6 (≈ 2.67 µM) | 50 (≈ 83.5 µM) |  |
| CO[C@@]12[C@H](COC(N)=O)C3=C(C(=O)C(C)=C(NCCSSCCCNC(=O)CC[C@H](N)C(=O)O)C3=O)N1C[C@@H]1N[C@@H]12 [Compound 4, 7-N-[2-[[3-(N^5 -L-glutamino)propyl]dithio]ethyl]mitomycin C] | 22.5 | 1.52 | 1.27 | 0.8 (≈ 1.31 µM) | > 20 | 3.1 (≈ 5.06 µM) | 5.1 | 3.1 (≈ 5.06 µM) |  | 1.6 (≈ 2.61 µM) | 250 (≈ 408 µM) |  |
| CO[C@@]12[C@H](COC(N)=O)C3=C(C(=O)C(C)=C(NCCSSCCCCNC(=O)CC[C@H](N)C(=O)O)C3=O)N1C[C@@H]1N[C@@H]12 [Compound 5, 7-N-[2-[[4-(N^5 -L-glutamino)butyl]dithio]ethyl]mitomycin C] | 30 | 1.66 | 3.21 | 0.8 (≈ 1.28 µM) | > 20 | 1.6 (≈ 2.55 µM) | 8.4 | 1.6 (≈ 2.55 µM) |  | 1.6 (≈ 2.55 µM) |  |  |
| CO[C@@]12[C@H](COC(N)=O)C3=C(C(=O)C(C)=C(NCCSSCCNC(=O)[C@@H](N)CCC(=O)O)C3=O)N1C[C@@H]1N[C@@H]12 [Compound 9, 7-N-[2-[[2-(N^2 -L-glutamino)ethyl]dithio]ethyl]mitomycin C] |  |  |  |  | > 20 |  | 7.7 |  |  |  |  |  |
| CO[C@@]12[C@H](COC(N)=O)C3=C(C(=O)C(C)=C(NCCSSCCNC(=O)c4cc(=O)[nH]c(=O)[nH]4)C3=O)N1C[C@@H]1N[C@@H]12 [Compound 14, 7-N-[2-[(2-orotamidoethyl)dithio]ethyl]mitomycin C] | 45 | 1.68 | 1.2 |  |  |  | 11.5 |  |  |  |  | > 2.60 |

— patent publication US5103018A, “Mitomycin derivatives” (Kyowa Hakko Kogyo Kabushiki Kaisha, priority 1986, dated 1992)
